“And” between values parts separate entries of the source, which are not always exact repeats. Equal entries are not always repeated. Where two headings read alike, the source gives them in different places. Marks after values point to notes of the source that are not given here.
What was measured:
laying hens [1] = conditions: 0.03% of diet; day 35, fasted 15 hours
plasma VLDL particles [2] = conditions: day 35
laying hens [3] = experiment: Liver cholesterol content; conditions: day 35
laying hens [4] = experiment: Egg production, egg weights and yolk weights of statin-treated laying hens; format: in vivo, White Leghorn hens
Procedure: Hens were treated as described in Example 1. Egg yolk was weighed as outlined in Example 2.

laying hens [5] = experiment: Yolk cholesterol contents of eggs from statin-treated laying hens; format: in vivo, White Leghorn hens
Procedure: Agric. […] Hens were treated as described in Example 1. […] The eggs were hard-cooked, and the yolks were separated, weighed, and crumbled. […] Agric. […] Egg homogenate filtrates were analyzed for cholesterol as described in Rudel, L. L. and Morris, M. D., J. Lipid Res. 14:364-366 (1973).

plasma VLDL particles [6] = conditions: day 35; remark: listed apart in the source
[7] = 0.03% of diet, Overall (weeks 1-5)
[8] = 0.06% of diet, Overall (weeks 1-5)
[9] = 0.06% of diet, week 5 (maximal reduction for simvastatin, lovastatin)

## CCC(C)(C)C(=O)O[C@H]1C[C@@H](C)C=C2C=C[C@H](C)[C@H](CC[C@@H]3C[C@@H](O)CC(=O)O3)[C@H]21 [Simvastatin]
Laying hens [1]
  change of plasma total cholesterol concentration vs control: −36%
Plasma VLDL particles [2]; 0.03% of diet
  Plasma VLDL particle Diameter nm: 35.2 ± 0.1^a,b nm
Plasma VLDL particles [2]; 0.06% of diet
  Plasma VLDL particle Diameter nm: 35.3 ± 0.1^a,b nm
Laying hens [3]; 0.03% of diet
  Liver Cholesterol mg/g liver: 3.1 ± 0.10^b mg/g liver
  Liver Cholesterol mg/liver: 86.8 ± 2.9^a mg/liver
Laying hens [3]; 0.06% of diet
  Liver Cholesterol mg/g liver: 2.9 ± 0.04^b,c mg/g liver
  Liver Cholesterol mg/liver: 82.6 ± 1.9^a mg/liver
Laying hens [4]; [7]
  Egg weight, g: 63.3 ± 1.4^a,b (141) g
  Hen-day egg production, %: 80.6 ± 2.3^a,b (141) %
Laying hens [4]; 0.03% of diet, Week 1
  Egg weight, g: 63.8 ± 1.0^a g
  Hen-day egg production, %: 80.0 ± 2.5^d %
Laying hens [4]; 0.03% of diet, Week 2
  Egg weight, g: 63.9 ± 0.9^a,b g
  Hen-day egg production, %: 85.7 ± 1.5^a,b %
Laying hens [4]; 0.03% of diet, Week 3
  Egg weight, g: 62.5 ± 0.7^b,c g
  Hen-day egg production, %: 80.0 ± 1.2^b %
Laying hens [4]; 0.03% of diet, Week 4
  Egg weight, g: 62.8 ± 0.7^b,c g
  Hen-day egg production, %: 80.0 ± 1.2^b,c %
Laying hens [4]; 0.03% of diet, Week 5
  Egg weight, g: 62.9 ± 0.7^a,b g
  Hen-day egg production, %: 80.0 ± 1.2^b,c %
Laying hens [4]; [8]
  Egg weight, g: 62.0 ± 1.9^a,b (144) g
  Hen-day egg production, %: 82.3 ± 1.9^a,b (144) %
Laying hens [4]; 0.06% of diet, Week 1
  Egg weight, g: 63.8 ± 1.0^a g
  Hen-day egg production, %: 85.7 ± 1.5^b,c %
Laying hens [4]; 0.06% of diet, Week 2
  Egg weight, g: 62.0 ± 1.0^b,c g
  Hen-day egg production, %: 82.9 ± 1.0^b %
Laying hens [4]; 0.06% of diet, Week 3
  Egg weight, g: 61.0 ± 1.0^c g
  Hen-day egg production, %: 77.1 ± 1.2^b %
Laying hens [4]; 0.06% of diet, Week 4
  Egg weight, g: 62.2 ± 1.0^c,d g
  Hen-day egg production, %: 82.9 ± 1.0^b %
Laying hens [4]; 0.06% of diet, Week 5
  Egg weight, g: 60.5 ± 0.8^b g
  Hen-day egg production, %: 88.6 ± 1.0^a %
Laying hens [5]; 0.03% of diet, Week 0
  Yolk cholesterol content, mg cholesterol/g yolk: 10.8 ± 0.2^a mg cholesterol/g yolk
  Yolk cholesterol content, mg cholesterol/yolk: 189.7 ± 6.1^a mg cholesterol/yolk
Laying hens [5]; 0.03% of diet, Week 1
  Yolk cholesterol content, mg cholesterol/g yolk: 11.2 ± 0.2^a,b mg cholesterol/g yolk
  Yolk cholesterol content, mg cholesterol/yolk: 192.9 ± 5.3^a mg cholesterol/yolk
Laying hens [5]; 0.03% of diet, Week 2
  Yolk cholesterol content, mg cholesterol/g yolk: 10.3 ± 0.2^c,d mg cholesterol/g yolk
Laying hens [5]; 0.03% of diet, Week 3
  Yolk cholesterol content, mg cholesterol/g yolk: 10.0 ± 0.1^c,d mg cholesterol/g yolk
  Yolk cholesterol content, mg cholesterol/yolk: 166.2 ± 2.7^b mg cholesterol/yolk
Laying hens [5]; 0.03% of diet, Week 4
  Yolk cholesterol content, mg cholesterol/g yolk: 10.3 ± 0.2^b,c mg cholesterol/g yolk
Laying hens [5]; 0.03% of diet, Week 5
  Yolk cholesterol content, mg cholesterol/g yolk: 10.1 ± 0.1^b mg cholesterol/g yolk
  Yolk cholesterol content, mg cholesterol/yolk: 172.1 ± 2.9^b,c mg cholesterol/yolk
Laying hens [5]; 0.06% of diet, Week 0
  Yolk cholesterol content, mg cholesterol/g yolk: 11.0 ± 0.3^a mg cholesterol/g yolk
  Yolk cholesterol content, mg cholesterol/yolk: 191.1 ± 7.9^a mg cholesterol/yolk
Laying hens [5]; 0.06% of diet, Week 1
  Yolk cholesterol content, mg cholesterol/g yolk: 10.7 ± 0.2^b mg cholesterol/g yolk
  Yolk cholesterol content, mg cholesterol/yolk: 188.7 ± 9.1^a,b mg cholesterol/yolk
Laying hens [5]; 0.06% of diet, Week 2
  Yolk cholesterol content, mg cholesterol/g yolk: 10.0 ± 0.1^d mg cholesterol/g yolk
  Yolk cholesterol content, mg cholesterol/yolk: 170.8 ± 3.0^b mg cholesterol/yolk
Laying hens [5]; 0.06% of diet, Week 3
  Yolk cholesterol content, mg cholesterol/g yolk: 9.8 ± 0.1^d mg cholesterol/g yolk
  Yolk cholesterol content, mg cholesterol/yolk: 166.0 ± 4.6^b mg cholesterol/yolk
Laying hens [5]; 0.06% of diet, Week 4
  Yolk cholesterol content, mg cholesterol/g yolk: 9.9 ± 0.3^c mg cholesterol/g yolk
  Yolk cholesterol content, mg cholesterol/yolk: 170.4 ± 7.0^b mg cholesterol/yolk
Laying hens [5]; 0.06% of diet, Week 5
  Yolk cholesterol content, mg cholesterol/g yolk: 9.3 mg cholesterol/g yolk and 9.3 ± 0.1^c mg cholesterol/g yolk
  Yolk cholesterol content, mg cholesterol/yolk: 158.0 mg cholesterol/yolk and 158.0 ± 2.7^c,d mg cholesterol/yolk
Laying hens [5]; [9]
  yolk cholesterol reduction from control on a per yolk (egg) basis: 22%
  yolk cholesterol reduction from control per g of yolk (mg/g basis): 20%
Plasma VLDL particles [6]; 0.03% of diet
  Plasma VLDL composition: EC (esterified cholesterol): 0.06 ± 0.02^a,b %
  Plasma VLDL composition: PC (phosphatidylcholine): 12.15 ± 0.58^b %
  Plasma VLDL composition: PE (phosphatidylethanolamine): 3.96 ± 0.17^a %
  Plasma VLDL composition: Protein: 17.99 ± 1.48^a %
  Plasma VLDL composition: SM (sphingomyelin): 1.77 ± 1.24^a %
  Plasma VLDL composition: TG (triglyceride): 61.23 ± 2.98^a %
  Plasma VLDL composition: UC (unesterified cholesterol): 2.84 ± 0.20^a %
Plasma VLDL particles [6]; 0.06% of diet
  Plasma VLDL composition: EC (esterified cholesterol): 0.08 ± 0.04^a,b %
  Plasma VLDL composition: PC (phosphatidylcholine): 13.85 ± 0.61^a,b %
  Plasma VLDL composition: PE (phosphatidylethanolamine): 3.65 ± 0.51^a %
  Plasma VLDL composition: Protein: 17.06 ± 0.84^a %
  Plasma VLDL composition: SM (sphingomyelin): 0.36 ± 0.23^a %
  Plasma VLDL composition: TG (triglyceride): 62.03 ± 1.53^a %
  Plasma VLDL composition: UC (unesterified cholesterol): 2.97 ± 0.13^a %
